Laboratory results reported in PMC10839021, “Pharmacological effects of monoterpene carveol on the neuromuscular system of nematodes and mammals” (Frontiers in Pharmacology, 2024).

Molecular target: T1, A. suum ACR-16 nAChR (Asu-ACR-16, homomeric nicotinic acetylcholine receptor) (Ascaris suum, UniProt A0A0K0QSL7)
T1 construct: homomeric receptor expressed from Asu-ACR-16 cRNA in Xenopus laevis oocytes
Assay: two-electrode voltage-clamp in Xenopus oocytes, agonist concentration-response
Assay type: cell-based

T1 sequence (A0A0K0QSL7 entry or part of it): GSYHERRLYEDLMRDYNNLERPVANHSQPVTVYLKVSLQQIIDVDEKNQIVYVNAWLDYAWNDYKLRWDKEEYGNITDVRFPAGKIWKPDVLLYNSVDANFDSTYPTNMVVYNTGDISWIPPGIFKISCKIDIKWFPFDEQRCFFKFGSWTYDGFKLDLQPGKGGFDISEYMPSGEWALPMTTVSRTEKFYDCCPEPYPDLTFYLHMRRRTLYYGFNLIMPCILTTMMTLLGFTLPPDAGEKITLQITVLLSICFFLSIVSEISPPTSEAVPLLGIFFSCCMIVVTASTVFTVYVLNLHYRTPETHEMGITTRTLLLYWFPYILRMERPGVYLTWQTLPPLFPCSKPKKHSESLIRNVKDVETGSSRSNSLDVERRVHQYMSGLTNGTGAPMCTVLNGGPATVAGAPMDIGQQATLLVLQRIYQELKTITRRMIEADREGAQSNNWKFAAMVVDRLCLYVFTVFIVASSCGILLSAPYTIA

## CC(=O)OCC[N+](C)(C)C [acetylcholine]
  EC50: 4.9 ± 1.2 µM
